Data from patent US20110319392A1, “Thiazole Sulfonamide And Oxazole Sulfonamide Kinase Inhibitors” (priority 2009, published 2011).

What was measured:
EGFR = molecular target: T1, EGFR (Homo sapiens, UniProt P00533); experiment: EGFR substrate phosphorylation assay (HTRF); format: biochemical
T1 construct: made in house; host or cells: baculovirus expression system
In short: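 Baculovirus-expressed EGFR (0.8 nM) or ErbB2 (10 nM) in enzyme mix, preincubated 1 h at 20 °C with compound (0.00027–47.6 μM final), then 90 min at 20 °C with substrate mix of 20 μM ATP, 0.8 uM biotinylated Peptide C, MnCl2, MOPS pH 7.5. Phosphotyrosine by HTRF; pIC50 reported.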

HN5 tumor cells = experiment: Cell growth inhibition assay (CellTiter-Glo), HN5; format: cell-based, Human; details: Homo sapiens, 72 h; 3 days incubation
In short: (§1)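 Readout was CellTiter-Glo luminescence (total ATP, surrogate for cell number) after 3-day exposure at 37° C, 5% CO2 to 1:3 serial compound dilutions in 0.2% final DMSO. Seeding was 500 cells/well; IC50 derived by 4-parameter fit relative to vehicle-treated wells.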

Colo205 tumor cells = experiment: Cell growth inhibition assay (CellTiter-Glo), Colo205; format: cell-based, Human; details: Homo sapiens, COLO 205, 72 h; 3 days incubation
In short: as §1

SK-MEL-28 tumor cells = experiment: Cell growth inhibition assay (CellTiter-Glo), SK-MEL-28; format: cell-based, Human; details: Homo sapiens, SK-MEL-28, 72 h; 3 days incubation
In short: as §1

T1 sequence (P00533 25-1210): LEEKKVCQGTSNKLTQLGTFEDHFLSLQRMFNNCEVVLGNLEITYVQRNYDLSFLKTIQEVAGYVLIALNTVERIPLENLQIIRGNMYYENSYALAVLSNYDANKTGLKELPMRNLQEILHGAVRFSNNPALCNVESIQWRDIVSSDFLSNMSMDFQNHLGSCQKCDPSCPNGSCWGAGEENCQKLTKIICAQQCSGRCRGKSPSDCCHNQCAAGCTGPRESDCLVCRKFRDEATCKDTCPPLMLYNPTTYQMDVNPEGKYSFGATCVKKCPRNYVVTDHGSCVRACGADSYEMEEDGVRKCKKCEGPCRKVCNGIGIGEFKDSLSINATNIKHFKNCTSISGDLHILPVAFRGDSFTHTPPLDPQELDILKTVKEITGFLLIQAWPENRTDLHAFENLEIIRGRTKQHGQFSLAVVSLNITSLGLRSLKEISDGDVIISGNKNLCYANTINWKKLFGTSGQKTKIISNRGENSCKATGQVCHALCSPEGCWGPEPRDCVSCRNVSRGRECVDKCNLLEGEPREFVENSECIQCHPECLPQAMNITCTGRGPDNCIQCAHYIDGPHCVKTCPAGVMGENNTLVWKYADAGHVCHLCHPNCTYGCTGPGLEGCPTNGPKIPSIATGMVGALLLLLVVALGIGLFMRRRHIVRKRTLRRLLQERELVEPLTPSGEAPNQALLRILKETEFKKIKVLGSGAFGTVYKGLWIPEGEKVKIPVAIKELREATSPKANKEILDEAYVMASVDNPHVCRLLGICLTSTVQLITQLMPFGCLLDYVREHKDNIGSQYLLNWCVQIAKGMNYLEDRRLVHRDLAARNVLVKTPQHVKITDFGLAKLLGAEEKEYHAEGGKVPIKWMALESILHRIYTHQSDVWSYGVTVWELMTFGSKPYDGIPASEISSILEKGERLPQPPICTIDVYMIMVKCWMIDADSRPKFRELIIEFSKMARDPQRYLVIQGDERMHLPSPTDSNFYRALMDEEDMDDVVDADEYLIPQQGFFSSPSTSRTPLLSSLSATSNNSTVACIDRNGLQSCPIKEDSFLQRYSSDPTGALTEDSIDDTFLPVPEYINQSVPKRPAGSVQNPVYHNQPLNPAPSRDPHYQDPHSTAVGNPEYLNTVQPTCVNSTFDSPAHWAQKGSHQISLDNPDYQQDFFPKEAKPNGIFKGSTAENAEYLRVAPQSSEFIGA

Row | IC50 (EGFR) | IC50 (HN5 tumor cells) | IC50 (Colo205 tumor cells) | IC50 (SK-MEL-28 tumor cells) | Structure (SMILES)
1 | > 1000 nM | > 1000 nM | < 100 nM | < 100 nM | Cc1cc(N2CCN(CCS(C)(=O)=O)CC2)ncc1Nc1nccc(-c2sc(C(C)C)nc2-c2cccc(NS(=O)(=O)c3c(F)cccc3F)c2)n1 [Example 131]
2 | 100 to 1000 nM | > 1000 nM | < 100 nM | < 100 nM | CC(C)c1nc(-c2ccc(F)c(NS(=O)(=O)c3c(F)cccc3F)c2)c(-c2ccnc(Nc3ccc(N4CCOCC4)nc3)n2)s1 [Example 23, 2,6-Difluoro-N-{2-fluoro-5-[2-(1-methylethyl)-5-(2-{[6-(4-morpholinyl)-3-pyridinyl]amino}-4-pyrimidinyl)-1,3-thiazol-4-yl]phenyl}benzenesulfonamide]
3 | 100 to 1000 nM | 100 to 1000 nM | < 100 nM | < 100 nM | CC(C)c1nc(-c2cccc(NS(=O)(=O)c3c(F)cccc3F)c2)c(-c2ccnc(Nc3ccc(N4CCN5CCOC[C@H]5C4)nc3)n2)s1 [Example 15]
4 | > 1000 nM | 100 to 1000 nM | < 100 nM | < 100 nM | COCCN1CCN(c2ccc(Nc3nccc(-c4sc(C(C)C)nc4-c4cccc(NS(=O)(=O)c5ccccc5)c4)n3)cn2)CC1 [Example 6, N-[3-(2-(1-Methylethyl)-5-{2-[(6-{4-[2-(methyloxy)ethyl]-1-piperazinyl}-3-pyridinyl)amino]-4-pyrimidinyl}-1,3-thiazol-4-yl)phenyl]benzenesulfonamide]
5 | > 1000 nM | 100 to 1000 nM | 100 to 1000 nM | 100 to 1000 nM | CC(C)c1nc(-c2cc(F)c(F)c(NS(=O)(=O)c3cccc(F)c3)c2)c(-c2ccnc(Nc3ccc(N4CCN(CCF)CC4)c(F)c3)n2)s1 [Example 101]
6 | 100 to 1000 nM | 100 to 1000 nM | < 100 nM | < 100 nM | Nc1nc(-c2cccc(NS(=O)(=O)c3c(F)cccc3F)c2)c(-c2ccnc(Nc3ccc(N4CCOCC4)nc3)n2)s1 [Example 62]
7 | > 1000 nM | 100 to 1000 nM | < 100 nM | < 100 nM | CC(C)c1nc(-c2cccc(NS(=O)(=O)c3c(F)cccc3F)c2F)c(-c2ccnc(Nc3ccc(N4CCOCC4)nc3)n2)s1 [Example 123]
8 | 100 to 1000 nM | > 1000 nM | < 100 nM | < 100 nM | O=S(=O)(Nc1cc(-c2nc(N3CCCC3)sc2-c2ccnc(Nc3ccc(N4CCOCC4)nc3)n2)ccc1F)c1c(F)cccc1F [Example 26, 2,6-Difluoro-N-{2-fluoro-5-[5-(2-{(6-(4-morpholinyl)-3-pyridinyl]amino}-4-pyrimidinyl)-2-(1-pyrrolidinyl)-1,3-thiazol-4-yl]phenyl}benzenesulfonamide]
9 | > 1000 nM | > 1000 nM | < 100 nM | < 100 nM | COc1ccc(S(C)(=O)=O)cc1Nc1nccc(-c2sc(N3CCOCC3)nc2-c2cccc(NS(=O)(=O)c3c(F)cccc3F)c2F)n1 [Example 157]
10 | > 1000 nM | < 100 nM | < 100 nM | < 100 nM | CC(C)c1nc(-c2ccnc(NS(=O)(=O)c3c(F)cccc3F)c2)c(-c2ccnc(Nc3ccc(N4CCN(CCF)CC4)c(F)c3)n2)s1 [Example 100]
11 | > 1000 nM | > 1000 nM | < 100 nM | < 100 nM | CC(C)c1nc(-c2cccc(NS(=O)(=O)c3c(F)cccc3F)n2)c(-c2ccnc(Nc3ccc(N4CCOCC4)nc3)n2)s1 [Example 44]
12 | < 100 nM | > 1000 nM | < 100 nM | < 100 nM | COc1cc(N2CCC(N3CCN(CCS(C)(=O)=O)CC3)CC2)ccc1Nc1nccc(-c2sc(C(C)C)nc2-c2cccc(NS(=O)(=O)c3c(F)cccc3F)c2)n1 [Example 20, 2,6-Difluoro-N-{3-[2-(1-methylethyl)-5-(2-{[2-(methyloxy)-4-(4-{4-[2-(methylsulfonyl)ethyl]-1-piperazinyl}-1-piperidinyl)phenyl]amino}-4-pyrimidinyl)-1,3-thiazol-4-yl]phenyl}benzenesulfonamide]
13 | < 100 nM | > 1000 nM | < 100 nM | < 100 nM | CCOc1ccc(Nc2nccc(-c3sc(N4CCCC4)nc3-c3cccc(NS(=O)(=O)c4c(F)cccc4F)c3)n2)cc1N1CCN(CCS(C)(=O)=O)CC1 [Example 109]
14 | 100 to 1000 nM | 100 to 1000 nM | < 100 nM | < 100 nM | O=S(=O)(Nc1cccc(-c2nc(N3CCOCC3)sc2-c2ccnc(Nc3ccc(N4CCOCC4)nc3)n2)c1F)c1c(F)cccc1F [Example 122]

Row | Structure (SMILES) | IC50 (EGFR) | IC50 (HN5 tumor cells) | IC50 (Colo205 tumor cells) | IC50 (SK-MEL-28 tumor cells)
15 | O=S(=O)(Nc1cccc(-c2nc(N3CCCCC3)sc2-c2ccnc(Nc3ccc(N4CCOCC4)nc3)n2)c1)c1c(F)cccc1F [Example 151] | > 1000 nM | 100 to 1000 nM | < 100 nM | < 100 nM
